{"source": "patent US20050020544A1", "about": "“Bicyclic CB2 cannabinoid receptor ligands” (priority 2002, published 2005)", "key": {"C57/BL male mice": {"tested_on": "C57/BL male mice", "assay": "MPTP model for Parkinson's disease, TH immunoreactivity in SNpc", "assay_type": "in vivo, mouse", "conditions": "20 mg/kg i.p., once before first MPTP, day 7", "protocol": "The mice (C57/BL male mice, average weight 30 g, Harlan, Israel) were administered i.p. with 4 injections of MPTP (Sigma, USA) (20 mg/kg, 5 ml/kg) in saline (Teva Medical Israel) at 2 hours interval on day 1. The treatment groups, including: (a) Saline, untreated, (b) MPTP, untreated, (c) Vehicle (1:20of CREMOPHOR EL®:ethanol), 5 ml/kg i.p., and (d) test compounds, were administered i.p. once just before the first MPTP administration. Seven days following the MPTP treatment the animals were sacrificed (by i.p. administration of pentobarbitone sodium CTS Israel 100 mg/kg) and their brains removed for tyrosine hydroxylase (TH) detection using immunohistochemistry technique.\nBrains were fixed by cardiac perfusion with 4% Paraformaldehyde followed by immersion of the brain in the same fixative for at least 72 hours. Then brains were washed with PBS and transferred to 30% sucrose in PBS until they sank. After the brains sink in the sucrose, they were frozen using the cryostat special fast freezing (−60° C.). […] Quantitative analysis was performed by counting of immunoreactive (IR) cells at the widest dimension of the SNpc lateral to the roots of the third cranial nerve separating medial and lateral SN at the level of interpreduncular nucleus. The amount of the labeling at the striatum level was evaluated using computerized image analysis system.\nAll data are expressed as mean±SD. […]"}, "Adult female BALB/c mice": {"tested_on": "Adult female BALB/c mice", "assay_type": "in vivo, mouse", "conditions": "i.p. twice", "protocol": "Adult female BALB/c mice (20 g average body weight, Harlan, Israel) were sensitized on day 0 and day 1 by application of 30 μl of 0.15% Dinitrofluorobenzene (DNFB) diluted in acetone on the shaved skin of the abdomen. On day 6 the animals were challenged by application of 10 μl of DNFB in acetone on one ear. The contralateral ear was not challenged but received the application of 10 μl acetone. Test compounds were administered at increasing doses from 0 to 15 mg/kg i.p. twice, the first injection was immediately after DNFB challenge (on day 6) and the second injection was 16 hours post challenge (on day 7). Each treatment group comprised at least 7 animals. Dexamethasone (DXM) was used as positive control. Ear thickness was determined (in 0.01 mm units) 24 hours after challenge (and 6 hours after second treatment on day 7) using a dial thickness gauge (Mitutoyo, Japan).\nResults are analyzed as ear thickness of DNFB treated over DNFB untreated contralateral ear. The impact of the test compound was further assessed by comparing its mean impact on the animals of the treatment group to the response generated by the appropriate vehicle only."}, "Male ICR mice": {"tested_on": "Male ICR mice", "assay": "Rotarod locomotor ability", "assay_type": "in vivo, mouse", "conditions": "10 mg/kg i.p.", "protocol": "The effect of test compounds on overall locomotor ability was assessed in a second experimental setup, where the animals were submitted to a functional test using the rotarod apparatus as described by Rozas et al. (Rozas G. et al., J. of Neuroscience Methods 83: 165-75, 1998). The animals, male ICR mice (average body weight 40 g, Harlan, Israel), were trained for 4 days before beginning the experiment. Their task was to stay on the accelerating rod without falling for 12 minutes (3 minutes at each speed). The tested speeds were: 15, 19, 23 and 27 rpm. Animal performance on the rod was scored as follows: each animal could obtain a maximum of 3 points (1 for each minute) for full walking on the rod at each speed. Therefore, an animal could get a maximum score of 12 points (3 for each speed). Catching the circling beam of the rod without walking subtracted 0.5 points for every 3 circles circled by the animal. […] After proper training, at least 6 animals per group were administered i.p. with various doses of test compounds and controls, at volume dose of 5 ml/kg. Score was determined in the rotarod apparatus at time zero prior to compound injection and 30 minutes, 3 and 24 hours after compound or vehicle administration.\nResults are expressed as mean±SD and the differences between vehicle and treatments are compared by ANOVA, followed by post-hoc Tukey's test. […] This effect disappeared at later time points with average scores of 9.7 and 11.9 at 3 and 24 hours respectively."}, "Sprague Dawley male rats": {"tested_on": "Sprague Dawley male rats", "assay": "Tail flick model, i.v.", "assay_type": "in vivo, rat", "conditions": "for % animals with latency time twice superior to vehicle: ninety minutes", "protocol": "Each treatment group contained at least 6 animals. […] Its vehicle, saline, was also included as control.\nTwo parameters were used to analyze the results, the latency time and the % of animals showing analgesia. […] The results in both cases are expressed as mean±SE.\nSimilar studies were performed in Sprague Dawley male rats where the drug was injected i.v. instead of i.p. in the mice model. […] These observations are consistent with the route of administration. In the i.p. study the first time point post-injection was 30 minutes, while it was 10 minutes following i.v. injection thus the onset of action was not thoroughly determined in these experiments. […] At the last time point tested (330 minutes following injection), almost 70% of the animals treated with 4 mg/kg of compound A retained increase resistance to pain."}}}
{"molecule": "CCCCCCC(C)(C)c1cc(OC)c(C2C=C(CO)C3CC2C3(C)C)c(OC)c1", "note": "(single isomer, unassigned; (+)) [HU-308, (+) {4-[4-(1,1-dimethylheptyl)-2,6-dimethoxy-phenyl]-6,6-dimethyl-bicyclo[3.1.1]hept-2-en-2-yl}-methanol, reference compound]", "values": [{"measurement": "SN dopaminergic (TH-IR) cells rescued from MPTP toxicity", "setting": "C57/BL male mice", "result": "about 43%"}, {"measurement": "calculated IC50 reduction in ear thickness", "setting": "Adult female BALB/c mice", "result": 4.8, "unit": "mg/kg"}, {"measurement": "maximal inhibition (reduction in ear thickness)", "setting": "Adult female BALB/c mice; doses 0 to 15 mg/kg, 24 hours after challenge", "result": "~60", "unit": "%"}]}
{"molecule": "CCCCCCC(C)(C)c1cc(O)c(C2CC(=O)C3CC2C3(C)C)c(O)c1", "note": "(single isomer, unassigned; (-)) [Compound A, (−)-4-[4-(1,1-Dimethyl-heptyl)2,6-dihydroxy-phenyl]-6,6-dimethyl-bicyclo[3.1.1)heptan-2-one]", "values": [{"measurement": "rotarod average score", "setting": "Male ICR mice; 3 hours", "result": 9.7}, {"measurement": "rotarod average score", "setting": "Male ICR mice; 24 hours", "result": 11.9}, {"measurement": "rotarod average score", "setting": "Male ICR mice; thirty minutes, maximal score 12", "result": 5.6}, {"measurement": "% animals with latency time twice superior to vehicle", "setting": "Sprague Dawley male rats; 3 mg/kg i.v.", "result": 100, "unit": "%"}, {"measurement": "% animals with increased resistance to pain", "setting": "Sprague Dawley male rats; 4 mg/kg i.v., 330 minutes", "result": "~70", "unit": "%"}, {"measurement": "% animals with latency time twice superior to vehicle", "setting": "Sprague Dawley male rats; 4 mg/kg i.v.", "result": 100, "unit": "%"}]}
